US20240409662A1, “ANTIBODY MASKS AND USES THEREOF” (Vibrant Pharma Limited, priority 2021, published 2024)
Read-outs that look alike come from different tables or passages of the source. No end group written: not given here.

Columns and labels:
SP34 = assay: Masking capability of potential masks of SP34 (ELISA, BLI); assay type: binding; settings: mask and linker fused to SP34 VH and/or VL
Procedure: Binding of the 19 M-TCEs to both their antigens CEACAM5 and CD3δε was assessed with BLI using ForteBio Red96 as described above.

HT29 cells = assay: PBMC co-cultivation assay, M-TCE-induced killing of HT29 cells; assay type: cell-based, human; settings: for EC50: HT29 + human PBMC, 72 hours, read-out: Efficacy (EC50); for tumor cell killing efficacy: digested vs undigested, in words; for Digested vs. masked: ratio of EC50 non-digested to MMP9-digested
Procedure: Five digested and undigested M-TCEs were tested for their tumor cell killing capability in the presence of human PBMC.
A total of 5×10^3 cells in RPMI1640 medium (supplemented with 10% FBS and 2 mM glutamine) of the target cell line (HT29) were seeded in 96-well plates (Day 0). A dilution series of respective antibodies was performed in assay media and added to target cells. On Day 0, a total of 5×10^4 PBMCs were added to each well, and the final reaction volume was adjusted to 200 μl. Percentage viability of target cell was measured by […]. LDH was measured after 72 hours using the Cell Counting Kit-8 (CK04, Dojindo, Japan) according to the manufacturer's recommendations. The results were analyzed as mean and standard deviation (SD) from triplicate wells and plotted as 4-parameter non-linear regression fittings using GraphPad Prism 9 software (GraphPad Software, San Diego, CA, USA).

CD3 on human PBMC = CD3 on human PBMC (human, UniProt P07766 23-207); assay: cell-based or functional assay
Chain of CD3 on human PBMC (P07766 23-207): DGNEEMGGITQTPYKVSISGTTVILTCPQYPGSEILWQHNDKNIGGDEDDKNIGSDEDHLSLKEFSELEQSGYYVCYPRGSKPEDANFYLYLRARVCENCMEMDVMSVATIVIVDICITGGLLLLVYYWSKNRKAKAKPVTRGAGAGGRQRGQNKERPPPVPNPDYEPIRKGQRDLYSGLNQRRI

Molecule	Masking Capability (SP34)	also measured
L0-WT: M-TCE; QDGNEEPLGL-SP34VH, SEQ ID NO 12	Yes	–
L2-D2E: M-TCE; QEGNEEGSPLGLGS-SP34VH, SEQ ID NO 26	Yes	–
L2-D2G: M-TCE; QGGNEEGSPLGLGS-SP34VH, SEQ ID NO 32	Yes	–
L2-D2I: M-TCE; QIGNEEGSPLGLGS-SP34VH, SEQ ID NO 31	No	–
L2-D2R: M-TCE; QRGNEEGSPLGLGS-SP34VH, SEQ ID NO 25	No	–
L2-G3A: M-TCE; QDANEEGSPLGLGS-SP34VH, SEQ ID NO 38	Yes	–
L2-G3I: M-TCE; QDINEEGSPLGLGS-SP34VH, SEQ ID NO 37	No	–
L2-Q1E: M-TCE; EDGNEEGSPLGLGS-SP34VH, SEQ ID NO 19	No	–
L2-Q1H: M-TCE; HDGNEEGSPLGLGS-SP34VH, SEQ ID NO 22	No	–
L2-Q1S: M-TCE; SDGNEEGSPLGLGS-SP34VH, SEQ ID NO 20	No	–
L2-Q1V: M-TCE; VDGNEEGSPLGLGS-SP34VH, SEQ ID NO 23	No	–
L2-Q1Y: M-TCE; YDGNEEGSPLGLGS-SP34VH, SEQ ID NO 21	No	–
L2-WT: M-TCE; QDGNEEGSPLGLGS-SP34VH, SEQ ID NO 13	Yes	–
L3-WT: M-TCE; QDGNEESGSPLGLSGG-SP34VH, SEQ ID NO 14	Yes	–
L4-D2G: M-TCE; QGGNEEGSGSPLGLGSGS-SP34VH, SEQ ID NO 33	Yes	–
L4-G3R: M-TCE; QDRNEEGSGSPLGLGSGS-SP34VH, SEQ ID NO 44	Yes	–
L4-WT: M-TCE; QDGNEEGSGSPLGLGSGS-SP34VH, SEQ ID NO 15	Yes	–
L5-D2E: M-TCE; QEGNEESSGGSPLGLSSGGS-SP34VH, SEQ ID NO 28	Yes	EC50 (HT29 cells; MMP9-digested): 0.013 nM; EC50 (HT29 cells; Non-digested): 0.418 nM; tumor cell killing efficacy (HT29 cells): higher efficacy in inducing tumor cell killing than their undigested counterparts; Digested vs. masked (HT29 cells): 32×

Molecule	Masking Capability (SP34)	also measured
L5-D2G: M-TCE; QGGNEESSGGSPLGLSSGGS-SP34VH, SEQ ID NO 34	Yes	–
L5-G3A: M-TCE; QDANEESSGGSPLGLSSGGS-SP34VH, SEQ ID NO 40	Yes	–
L5-WT: M-TCE; QDGNEESSGGSPLGLSSGGS-SP34VH, SEQ ID NO 16	Yes	–
L6-D2E: M-TCE; QEGNEESSGGGSPLGLSSGGGS-SP34VH, SEQ ID NO 29	Yes	EC50 (HT29 cells; MMP9-digested): 0.01 nM; EC50 (HT29 cells; Non-digested): 0.317 nM; tumor cell killing efficacy (HT29 cells): higher efficacy in inducing tumor cell killing than their undigested counterparts; Digested vs. masked (HT29 cells): 32×
L6-D2G: M-TCE; QGGNEESSGGGSPLGLSSGGGS-SP34VH, SEQ ID NO 35	Yes	–
L6-G3A: M-TCE; QDANEESSGGGSPLGLSSGGGS-SP34VH, SEQ ID NO 41	Yes	–
L6-G3R: M-TCE; QDRNEESSGGGSPLGLSSGGGS-SP34VH, SEQ ID NO 45	Yes	–
L6-WT: M-TCE; QDGNEESSGGGSPLGLSSGGGS-SP34VH, SEQ ID NO 17	Yes	–
L7-D2E: M-TCE; QEGNEESSGGSGSPLGLSSGGSGS-SP34VH, SEQ ID NO 30	Yes	–
L7-D2G: M-TCE; QGGNEESSGGSGSPLGLSSGGSGS-SP34VH, SEQ ID NO 36	Yes	EC50 (HT29 cells; MMP9-digested): 0.011 nM; EC50 (HT29 cells; Non-digested): 0.096 nM; tumor cell killing efficacy (HT29 cells): higher efficacy in inducing tumor cell killing than their undigested counterparts; Digested vs. masked (HT29 cells): 9×
L7-G3A: M-TCE; QDANEESSGGSGSPLGLSSGGSGS-SP34VH, SEQ ID NO 42	Yes	–
L7-WT: M-TCE; QDGNEESSGGSGSPLGLSSGGSGS-SP34VH, SEQ ID NO 18	Yes	–
LC-L4-G2E: M-TCE, mask on VL; QEGNEEGSGSPLGLGSGS-SP34VL, SEQ ID NO 27	Yes	–
SP34-CEA (bispecific antibody) heavy: EVKLLESGGGLVQPKGSLKLSCAASGFTFNTYAMNWVRQAPGKGLEWVARIRSKYNNYATYYADSVKDRFTISRDDSQSILYLQMNNLKTEDTAMYYCVRHGNFGNSYVSWFAYWGQGTLVTVSS light: QAVVTQESALTTSPGETVTLTCRSSTGAVTTSNYANWVQEKPDHLFTGLIGGTNKRAPGVPARFSGSLIGDKAALTITGAQTEDEAIYFCALWYSNLWVFGGGTKVEIK EVQLVESGGGFVQAGESLTLSCTSSTLTFTPYRMAWYRQAPGKQRDLVADISSGDGRTTNYADFAKGRFTISRDNIKNTVFLRMTNLKPEDTAVYYCNTFVSFVGIARSWGQGTQVTVSSESKYGPPCPPCPAPEAAGGPSVFLFPPKPKDTLMISRTPEVTCVVVDVSQEDPEVQFNWYVDGVEVHNAKTKPREEQFNSTYRVVSVLTVLHQDWLNGKEYKCKVSNKGLPSSIEKTISKAKGQPREPQVCTLPPSQEEMTKNQVSLSCAVKGFYPSDIAVEWESNGQPENNYKTTPPVLDSDGSFFLVSRLTVDKSRWQEGNVFSCSVMHEALHNRFTQKSLSLSL	–	EC50 of M-TCE-induced killing of HT29 cells in the presence of human PBMC (CD3 on human PBMC): 0.001 nM
MMP9-digested L6-D2E (bispecific antibody, not shown: small tags and cut ends) heavy: EVKLLESGGGLVQPKGSLKLSCAASGFTFNTYAMNWVRQAPGKGLEWVARIRSKYNNYATYYADSVKDRFTISRDDSQSILYLQMNNLKTEDTAMYYCVRHGNFGNSYVSWFAYWGQGTLVTVSS light: QAVVTQESALTTSPGETVTLTCRSSTGAVTTSNYANWVQEKPDHLFTGLIGGTNKRAPGVPARFSGSLIGDKAALTITGAQTEDEAIYFCALWYSNLWVFGGGTKVEIK EVQLVESGGGFVQAGESLTLSCTSSTLTFTPYRMAWYRQAPGKQRDLVADISSGDGRTTNYADFAKGRFTISRDNIKNTVFLRMTNLKPEDTAVYYCNTFVSFVGIARSWGQGTQVTVSSESKYGPPCPPCPAPEAAGGPSVFLFPPKPKDTLMISRTPEVTCVVVDVSQEDPEVQFNWYVDGVEVHNAKTKPREEQFNSTYRVVSVLTVLHQDWLNGKEYKCKVSNKGLPSSIEKTISKAKGQPREPQVCTLPPSQEEMTKNQVSLSCAVKGFYPSDIAVEWESNGQPENNYKTTPPVLDSDGSFFLVSRLTVDKSRWQEGNVFSCSVMHEALHNRFTQKSLSLSL	–	EC50 of M-TCE-induced killing of HT29 cells in the presence of human PBMC (CD3 on human PBMC): 0.01 nM
MMP9-digested L7-D2G (bispecific antibody, not shown: small tags and cut ends) heavy: EVKLLESGGGLVQPKGSLKLSCAASGFTFNTYAMNWVRQAPGKGLEWVARIRSKYNNYATYYADSVKDRFTISRDDSQSILYLQMNNLKTEDTAMYYCVRHGNFGNSYVSWFAYWGQGTLVTVSS light: QAVVTQESALTTSPGETVTLTCRSSTGAVTTSNYANWVQEKPDHLFTGLIGGTNKRAPGVPARFSGSLIGDKAALTITGAQTEDEAIYFCALWYSNLWVFGGGTKVEIK EVQLVESGGGFVQAGESLTLSCTSSTLTFTPYRMAWYRQAPGKQRDLVADISSGDGRTTNYADFAKGRFTISRDNIKNTVFLRMTNLKPEDTAVYYCNTFVSFVGIARSWGQGTQVTVSSESKYGPPCPPCPAPEAAGGPSVFLFPPKPKDTLMISRTPEVTCVVVDVSQEDPEVQFNWYVDGVEVHNAKTKPREEQFNSTYRVVSVLTVLHQDWLNGKEYKCKVSNKGLPSSIEKTISKAKGQPREPQVCTLPPSQEEMTKNQVSLSCAVKGFYPSDIAVEWESNGQPENNYKTTPPVLDSDGSFFLVSRLTVDKSRWQEGNVFSCSVMHEALHNRFTQKSLSLSL	–	EC50 of M-TCE-induced killing of HT29 cells in the presence of human PBMC (CD3 on human PBMC): 0.011 nM
L4-D2E (bispecific antibody) heavy: QEGNEEGSGSPLGLGSGSEVKLLESGGGLVQPKGSLKLSCAASGFTFNTYAMNWVRQAPGKGLEWVARIRSKYNNYATYYADSVKDRFTISRDDSQSILYLQMNNLKTEDTAMYYCVRHGNFGNSYVSWFAYWGQGTLVTVSS light: QAVVTQESALTTSPGETVTLTCRSSTGAVTTSNYANWVQEKPDHLFTGLIGGTNKRAPGVPARFSGSLIGDKAALTITGAQTEDEAIYFCALWYSNLWVFGGGTKVEIK EVQLVESGGGFVQAGESLTLSCTSSTLTFTPYRMAWYRQAPGKQRDLVADISSGDGRTTNYADFAKGRFTISRDNIKNTVFLRMTNLKPEDTAVYYCNTFVSFVGIARSWGQGTQVTVSSESKYGPPCPPCPAPEAAGGPSVFLFPPKPKDTLMISRTPEVTCVVVDVSQEDPEVQFNWYVDGVEVHNAKTKPREEQFNSTYRVVSVLTVLHQDWLNGKEYKCKVSNKGLPSSIEKTISKAKGQPREPQVCTLPPSQEEMTKNQVSLSCAVKGFYPSDIAVEWESNGQPENNYKTTPPVLDSDGSFFLVSRLTVDKSRWQEGNVFSCSVMHEALHNRFTQKSLSLSL	–	Digested vs. masked (ratio of killing EC50) (CD3 on human PBMC): 59 fold; EC50 of M-TCE-induced killing of HT29 cells in the presence of human PBMC (CD3 on human PBMC): 0.65 nM
